Measurements reported in PMC7016908 (ACS Omega, 2020).
Values joined by “and” are separate entries in the source; they are usually repeats but may differ in a detail not shown here. Equal values may be shown once. “Also recorded” adds a separate entry of the source.

What was measured:
[1] = molecular target: T1, human 5-HT2A receptor (Homo sapiens, UniProt P28223); assay: Functional Ca2+ mobilization fluorescence assay in CHO-5-HT2A cells; type: cell-based; settings: for Emax at 100 µM: read-out: % Emax 5-HT2A, % maximum response (5-HT) at 100 μM; for agonist character at 5-HT2A receptor: in words
T1 sequence (P28223 whole entry): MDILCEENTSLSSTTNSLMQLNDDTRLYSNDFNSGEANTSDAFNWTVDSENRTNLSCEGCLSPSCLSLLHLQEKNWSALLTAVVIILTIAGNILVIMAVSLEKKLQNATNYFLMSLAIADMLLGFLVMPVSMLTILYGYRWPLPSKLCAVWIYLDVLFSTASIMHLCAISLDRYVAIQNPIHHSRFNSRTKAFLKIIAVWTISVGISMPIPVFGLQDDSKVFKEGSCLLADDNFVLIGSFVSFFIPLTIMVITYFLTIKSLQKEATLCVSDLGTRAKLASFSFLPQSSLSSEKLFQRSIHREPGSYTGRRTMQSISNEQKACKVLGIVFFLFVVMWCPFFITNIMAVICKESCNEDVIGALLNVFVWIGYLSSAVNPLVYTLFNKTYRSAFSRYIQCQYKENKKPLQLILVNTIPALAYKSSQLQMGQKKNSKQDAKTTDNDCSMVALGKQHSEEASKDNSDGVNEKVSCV

[2] = molecular target: T1, human 5-HT2A receptor; assay: biochemical; type: binding; settings: for displacement of [3H]ketanserin from the human 5-HT2A receptor: at 10 μM concentration
[3] = molecular target: T2, human 5-HT2C receptor (Homo sapiens, UniProt P28335); assay: Functional Ca2+ mobilization fluorescence assay in HeLa-5-HT2C cells; type: cell-based; settings: for agonist character at 5-HT2C receptor: functional assay, in words; for Emax at 100 µM: read-out: % Emax 5-HT2C
T2 sequence (P28335 33-458): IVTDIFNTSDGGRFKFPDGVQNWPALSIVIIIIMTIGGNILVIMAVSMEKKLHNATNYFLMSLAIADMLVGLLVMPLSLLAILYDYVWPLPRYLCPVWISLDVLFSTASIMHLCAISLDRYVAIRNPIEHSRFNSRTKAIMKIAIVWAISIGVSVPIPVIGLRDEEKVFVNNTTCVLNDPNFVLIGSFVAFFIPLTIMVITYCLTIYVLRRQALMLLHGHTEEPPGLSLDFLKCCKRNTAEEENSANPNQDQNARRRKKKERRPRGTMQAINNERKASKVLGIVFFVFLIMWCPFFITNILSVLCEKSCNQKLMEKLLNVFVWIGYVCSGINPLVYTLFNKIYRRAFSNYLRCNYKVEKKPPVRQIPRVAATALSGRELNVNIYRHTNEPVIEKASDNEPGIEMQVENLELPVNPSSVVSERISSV

[4] = molecular target: T2, human 5-HT2C receptor; assay: Radioligand displacement binding, [3H]mesulergine, HeLa-5-HT2C cell membranes; settings: for Ki: [3H]mesulergine displacement, mean ± range of two independent assays; for 5-HT2A/2C: ratio of Ki 5-HT2A / Ki 5-HT2C; for selectivity for the 5-HT2C receptor: 5-HT2C over 5-HT2A
[5] = hydrochlorides; ref [12],[13]; cited from earlier work
[6] = test system: LSD-trained rats; settings: ref [6],[7]; cited from earlier work
[7] = test system: 5-HT2A receptor; settings: ref Trachsel et al., 2009 [23]; cited from earlier work
[8] = molecular target: 5-HT2A receptor; settings: ref Trachsel et al., 2009 [23]; cited from earlier work; remark: listed apart in the source

| SMILES | EC50 [1] [µM] | Emax at 100 µM [1] [%] | Ki [2] [µM] | displacement of [3H]ketanserin from the human 5-HT2A receptor [2] [%] | agonist character at 5-HT2C receptor [3] | Emax at 100 µM [3] [%] | Ki at the human 5-HT2C receptor (in words) [4] | Ki ([4]; Ki 5-HT2C) | 5-HT2A/2C [4] | EC50 [3] [µM] | further results |
| --- | --- | --- | --- | --- | --- | --- | --- | --- | --- | --- | --- |
| Cl.NCCc1ccc2oc3ccccc3c2c1 [Compound 1, 2-(Dibenzo[b,d]furan-2-yl)ethanamine Hydrochloride] | 22.6 | 66.1 | > 10 | < 50 | extremely weak partial agonists | 49.1 | submicromolar | 0.737 µM | > > 14 |  | toxicity (in words) [5]: toxic |
| COc1ccc2oc3ccccc3c2c1CCN.Cl [Compound 5, 2-(2-Methoxydibenzo[b,d]furan-1-yl)ethanamine Hydrochloride] | 14.5 | 59 | 2.55 |  | full agonists | 106 |  | 0.035 µM and 0.0353 µM | 72 | 0.222 ± 0.041 | agonist character at 5-HT2A receptor ([1]; functional assay): partial agonist; times weaker as agonist at 5-HT2A than at 5-HT2C ([1]; functional potency 5-HT2A vs 5-HT2C): 70 times; Ki at the h5-HT2A receptor (in words) [2]: low micromolar; selectivity for the 5-HT2C receptor [4]: > 70 fold |
| Cl.NCCc1cccc2c1oc1ccccc12 [Compound 4, 2-(Dibenzo[b,d]furan-4-yl)ethanamine Hydrochloride] | 3.33 ± 0.83 |  | > 10 | < 50 | moderately potent full agonist activity; also recorded: full agonists | 98 | submicromolar | 0.14 µM | > 71 | 1.38 ± 0.19 | % Emax 5-HT2A ([1]; % maximum response (5-HT) at 100 μM): 88.21 ± 2.79%; EC50 at 5-HT2A receptor (in words) ([1]; functional assay): low micromolar; selectivity for the 5-HT2C receptor [4]: > 70 fold; Ki ([4]; pKi 5-HT2C): 0.145 µM |
| NCCc1c2c(cc3c1OCC3)OCC2 [2C-H-Fly] |  |  |  |  |  |  |  |  |  |  | drug discrimination response [6]: positive drug discrimination response |
| CC(N)Cc1ccc2oc3ccccc3c2c1.Cl (centres unmarked) [Compound 2, 1-(Dibenzo[b,d]furan-2-yl)propan-2-amine Hydrochloride] |  | 64 | > 10 | < 50 | moderately potent full agonist activity | 112 | submicromolar | 0.474 µM | > > 21 | 3.52 ± 0.74 |  |
| COc1cc(-c2ccccc2)c(OC)cc1CCN [2C-phenyl, 2-(2,5-dimethoxy-4-phenylphenyl)ethanamine] |  |  |  |  |  |  |  |  |  |  | functional character at 5-HT2A receptor [7]: antagonist; pKi at the 5-HT2A receptor [8]: 6.11 |
| COc1cc2c(cc1CCN)oc1ccccc12.Cl [Compound 3, 2-(2-Methoxydibenzo[b,d]furan-3-yl)ethanamine Hydrochloride] | 32.4 | 58.2 | > 10 | < 50 | extremely weak partial agonists | 54 | submicromolar | 0.204 µM | > 49 | 53.2 | agonist character at 5-HT2A receptor ([1]; functional assay): very weak partial agonist; toxicity (in words) [5]: toxic |
